Results from ChEMBL document CHEMBL4483862, “Open-source discovery of chemical leads for next-generation chemoprotective antimalarials” (2018).

System: Plasmodium berghei
Assay: Luciferase/luciferin-expressing antifolate-resistant parasites were used to infect a culture of HepG2 cells that were pre-incubated with compounds. Infected hepatocytes emit light due to the luciferase reaction. Assay results are presented as the percent inhibition of light emission compared to control. […]
Format: functional
Settings: sporozoite; for IC90: read-out: LUCIFERASE INFECTION ASSAY - IC90
[1] = read-out: LUCIFERASE INFECTION ASSAY - IC50

Cc1nc2c3c(C)c(C)n(C4CCCCCC4)c3ncn2n1
IC50 [1]: > 11.1 µM
IC90: > 11.1 µM

CC(C)(C)c1cccc(Nc2ncc(C(=O)c3ccccc3)[nH]2)c1
IC50 [1]: 8.64 µM
IC90: > 10.3 µM

CCCCNC(=O)NCCc1ccc2c(c1)OCCO2
IC50 [1]: > 10 µM
IC90: > 10 µM

Cc1ccc(Oc2ccc(NC(=O)c3cc(C)on3)cc2)cc1
IC50 (PBLUC_HILL_SLOPE 2.32, PBLUC_R_SQUARED 0.861, read-out: LUCIFERASE INFECTION ASSAY - IC50): 1.81 µM
IC90: 4.67 µM

CCNC(=O)c1cccc(Nc2nc(C(F)(F)F)nc3ccccc23)c1
IC50 [1]: > 10 µM
IC90: > 10 µM

CCOC(=O)c1c(Sc2ccccc2)cnn1C(=O)Nc1cccc(Cl)c1
IC50 (PBLUC_HILL_SLOPE 0.46, PBLUC_R_SQUARED 0.851, read-out: LUCIFERASE INFECTION ASSAY - IC50): > 8.21 µM
IC90: > 8.21 µM

Cc1ccc(S(=O)(=O)Oc2ccccc2/C=N/N=C2\NC(=O)CS2)cc1Cl
IC50 (HEPG2TOX_HILL_SLOPE 8.05, HEPG2TOX_R_SQUARED 0.112, PBLUC_HILL_SLOPE 0.841, PBLUC_R_SQUARED 0.28, read-out: LUCIFERASE INFECTION ASSAY - IC50): > 10 µM
IC90: > 10 µM

CCc1noc(C)c1C(=O)OCc1csc(N(C(C)=O)c2ccccc2)n1
IC50 [1]: > 10 µM
IC90: > 10 µM

COc1ccc(N2C(=O)c3ccccc3C(C=NNC(=O)c3sc4ccccc4c3Cl)C2=O)cc1OC (configuration not stated)
IC50 (PBLUC_HILL_SLOPE 1.6, PBLUC_R_SQUARED 0.564, read-out: LUCIFERASE INFECTION ASSAY - IC50): 3.85 µM
IC90: > 10 µM

COc1cccc(CN2CCN3C=C(C(=O)Nc4ccc(C(C)C)cc4)OC3=NC2=O)c1
IC50 (HEPG2TOX_HILL_SLOPE 3.72, HEPG2TOX_R_SQUARED 0.984, PBLUC_HILL_SLOPE 3.98, PBLUC_R_SQUARED 0.662, read-out: LUCIFERASE INFECTION ASSAY - IC50): 5.35 µM
IC90: 9.3 µM

Cc1ccc(-c2nc(SCc3nc(=O)c4c(-c5ccccc5)csc4[nH]3)[nH]c2-c2ccc(C)cc2)cc1
IC50 (FFLUC_HILL_SLOPE 10.3, FFLUC_R_SQUARED 0.755, read-out: LUCIFERASE INFECTION ASSAY - IC50): > 10 µM
IC90: > 10 µM

O=C(Cc1cc(Cl)c2c(c1)OCCCO2)NCc1ccco1
IC50 [1]: 6.35 µM
IC90: > 10 µM

CC(C)c1ccc2c(c1)/C(=N/Nc1ccc(S(=O)(=O)Nc3ccc(Cl)cc3)cc1[N+](=O)[O-])C(=O)N2
IC50 [1]: > 10 µM
IC90: > 10 µM

Cc1cccc2sc(N(Cc3ccccc3)C(=O)C3CCN(C(=O)C(C)(C)C)CC3)nc12
IC50 [1]: > 10 µM
IC90: > 10 µM

NC(=O)C(C(=O)/C=C/c1c(Cl)cccc1Cl)=C1SCS1
IC50 (PBLUC_HILL_SLOPE 3.86, PBLUC_R_SQUARED 0.315, read-out: LUCIFERASE INFECTION ASSAY - IC50): 6.18 µM
IC90: > 10 µM

O=C(Nc1cc(Cl)ccc1O)c1ccccc1CSc1ccc(Cl)cc1
IC50 (HEPG2TOX_HILL_SLOPE 7.65, HEPG2TOX_R_SQUARED 0.733, PBLUC_HILL_SLOPE 11.9, PBLUC_R_SQUARED 0.0529, read-out: LUCIFERASE INFECTION ASSAY - IC50): 6.47 µM
IC90: 7.79 µM

O=C(NC1CC1)c1ccc(CN(C2CC2)S(=O)(=O)/C=C/c2ccccc2)cc1
IC50 (PBLUC_HILL_SLOPE 1.61, PBLUC_R_SQUARED 0.829, read-out: LUCIFERASE INFECTION ASSAY - IC50): 1.03 µM
IC90: 4.03 µM

Cc1nc(-c2ccc(NC(=O)c3cnn(-c4ccccc4F)c3C(F)(F)F)cc2)cs1
IC50 (PBLUC_HILL_SLOPE 2.7, PBLUC_R_SQUARED 0.26, read-out: LUCIFERASE INFECTION ASSAY - IC50): 7.76 µM
IC90: > 10 µM

COc1cc(OC)cc(-c2cn3c(-c4cccc(OC(F)(F)F)c4)cnc3cn2)c1
IC50 (PBLUC_HILL_SLOPE 10.9, PBLUC_R_SQUARED 0.156, read-out: LUCIFERASE INFECTION ASSAY - IC50): > 7.94 µM
IC90: > 7.94 µM

COc1cccc(-c2cc3c(Nc4ccccc4)nccc3[nH]2)c1
IC50 (PBLUC_HILL_SLOPE 41.1, PBLUC_R_SQUARED 0.519, read-out: LUCIFERASE INFECTION ASSAY - IC50): 3.33 µM
IC90: 3.51 µM

CC(C)(C)C(=O)/C=c1\[nH]c(=O)/c(=C/c2cc(F)cc3c2OCOC3)s1
IC50 (PBLUC_HILL_SLOPE 2.84, PBLUC_R_SQUARED 0.665, read-out: LUCIFERASE INFECTION ASSAY - IC50): 6.37 µM
IC90: > 10 µM

CC(OC(=O)C1CCN(C(=O)c2ccc(Cl)cc2)CC1)C(=O)Nc1ccc([N+](=O)[O-])cc1C(F)(F)F (configuration not stated)
IC50 [1]: > 10 µM
IC90: > 10 µM

O=C1OC(C23CC4CC(CC(C4)C2)C3)=N/C1=C\c1ccc(Cl)c([N+](=O)[O-])c1
IC50 [1]: > 10 µM
IC90: > 10 µM

CC(C)(C)c1ccc(NC(=O)NCCSCc2ccco2)cc1
IC50 [1]: > 9.93 µM
IC90: > 9.93 µM

OCc1ccc(-c2cnc3ccc(-c4cccc(F)c4)nn23)cc1
IC50 (FFLUC_HILL_SLOPE 16.8, FFLUC_R_SQUARED 0.417, HEPG2TOX_HILL_SLOPE 9.34, HEPG2TOX_R_SQUARED 0.811, PBLUC_HILL_SLOPE 2.28, PBLUC_R_SQUARED 0.536, read-out: LUCIFERASE INFECTION ASSAY - IC50): 3.13 µM
IC90: 8.2 µM

CNc1cc(C(C)C)nc2c(-c3ccccc3)cnn12
IC50 (PBLUC_HILL_SLOPE 1.1, PBLUC_R_SQUARED 0.428, read-out: LUCIFERASE INFECTION ASSAY - IC50): 9.54 µM
IC90: > 12.4 µM

Cc1ccnc2nc(C(=O)Nc3cc(C(F)(F)F)ccc3N3CCCCCC3)nn12
IC50 (PBLUC_HILL_SLOPE 19, PBLUC_R_SQUARED 0.744, read-out: LUCIFERASE INFECTION ASSAY - IC50): 0.368 µM
IC90: 0.413 µM

Cc1nn(-c2ccccc2)c(N2CCCCC2)c1/C=N/Nc1ccc(C(F)(F)F)cn1
IC50 [1]: > 10 µM
IC90: > 10 µM

CN(CC(=O)Nc1nc(-c2c[nH]c3ccccc23)cs1)C1CCCCC1
IC50 [1]: > 10 µM
IC90: > 10 µM

C(=N\Nc1ncnc2sc(-c3ccccc3)cc12)/c1sc(N2CCCCC2)nc1-c1cccs1
IC50 (FFLUC_HILL_SLOPE 0.658, FFLUC_R_SQUARED 0.126, HEPG2TOX_HILL_SLOPE 2.14, HEPG2TOX_R_SQUARED 0.958, PBLUC_HILL_SLOPE 24.1, PBLUC_R_SQUARED 0.279, read-out: LUCIFERASE INFECTION ASSAY - IC50): 1.11 µM
IC90: 1.21 µM

CC(=O)n1c(Nc2ccc(F)cc2)c(Sc2ccccc2[N+](=O)[O-])c2ccccc2c1=O
IC50 [1]: 5.95 µM
IC90: > 10 µM
